“Also recorded” adds a separate entry of the source.
Assays:
delayed rectifier (Ik) = conditions: cited from earlier work
cardiac repolarization = conditions: in vivo; cited from earlier work
[1] = system: isolated guinea pig hearts; assay: QT duration and action potential duration in isolated guinea pig hearts, perfused with oxygenated Tyrode's solution
Protocol: The hearts were perfused with an oxygenated Tyrode's solution, containing 0.0; 1.0; 5.0 or 10.0 μM of ketoconazole. QT duration and action potential duration (APD) were measured from cardiac electrodes. APD was measured at 50% (APD-50) and 90% (APD-90). In the table, "N" is the number of hearts, and QT and APD are measured in milliseconds.

[2] = system: microsporum canis, trichophyton mentagrophytes, candida tropicalis, candida albicans, and other fungi and bacteria; conditions: cited from earlier work
synthesis of ergosterol = conditions: fungal cell membranes; cited from earlier work
liver = conditions: cited from earlier work
patients = conditions: human, in vivo; cited from earlier work
[3] = in vivo, po; cited from earlier work
[4] = of 75 cases adequately followed up

## CC(C)NCC(O)c1ccc(NS(C)(=O)=O)cc1 (stereo not shown) [sotalol]
Delayed rectifier (Ik)
  block of cellular potassium channel delayed rectifier (Ik): block a cellular potassium channel called the delayed rectifier (Ik)
Cardiac repolarization
  prolongation of cardiac repolarization: cause a prolongation of cardiac repolarization
  torsades de pointes (side effect): well known side effect

## C=C[C@H]1C[N@@]2CC[C@H]1C[C@@H]2[C@@H](O)c1ccnc2ccc(OC)cc12 [quinidine]
Delayed rectifier (Ik)
  block of cellular potassium channel delayed rectifier (Ik): block a cellular potassium channel called the delayed rectifier (Ik)
Cardiac repolarization
  prolongation of cardiac repolarization: cause a prolongation of cardiac repolarization
  torsades de pointes (side effect): well known side effect

## CC(=O)N1CCN(c2ccc(OCC3COC(Cn4ccnc4)(c4ccc(Cl)cc4Cl)O3)cc2)CC1 (racemic) [Ketoconazole, 1-acetyl-4-[4-[[2-(2,4-dichlorophenyl)-2-(1H-imidazole-1-ylmethyl)-1,3-dioxolan-4-yl]methoxy]phenyl]piperazine]
[1]; 1.0 μM, N = 2 hearts, baseline 145 ± 5
  APD-50: 149 ± 1 milliseconds
[1]; 1.0 μM, N = 2 hearts, baseline 185 ± 10
  APD-90: 195 ± 5 milliseconds
[1]; 1.0 μM, N = 2 hearts, baseline 230 ± 10
  QT: 232 ± 9 milliseconds
[1]; 5.0 μM, N = 3 hearts, baseline 147 ± 5
  APD-50: 163 ± 5 milliseconds
[1]; 5.0 μM, N = 3 hearts, baseline 187 ± 9
  APD-90: 221 ± 8 milliseconds
[1]; 5.0 μM, N = 3 hearts, baseline 233 ± 9
  QT: 261 ± 8 milliseconds
[1]; 10.0 μM, N = 3 hearts, baseline 140 ± 8
  APD-50: 173 ± 2 milliseconds
[1]; 10.0 μM, N = 3 hearts, baseline 177 ± 14
  APD-90: 233 ± 9 milliseconds
[1]; isolated guinea pig hearts
  QT duration and action potential duration (in words): increases QT duration and action potential duration
[1]; isolated guinea pig hearts, listed as racemic ketoconazole
  arrhythmogenic effect (in words): may be associated with an increased risk of cardiac arrhythmia; also recorded: indicative of a potential arrhythmogenic effect
[2]; Sabouraud broth containing 10% inactivated bovine serum
  effect of 10% inactivated bovine serum on antifungal activity: enhanced
[2]; Sabouraud broth, 14 days of incubation
  inhibition of growth: Complete or marked inhibition of growth
Synthesis of ergosterol
  synthesis of ergosterol: impairs the synthesis of ergosterol
liver; 1981-1984, United Kingdom
  reports of hepatotoxicity: 82 reports
liver; average
  time for liver function tests to return to normal after treatment was stopped (average): 3.1 months
liver; in vivo
  hepatocellular injury suggested by serum liver function tests: 10 of the 16
liver; of 16 cases
  deaths among the cases probably related to treatment: 3 deaths
liver; [4]
  cases possibly related to treatment: 48 cases
  cases probably related to treatment: 16 cases
liver; of 82 reports
  deaths among the reports of hepatotoxicity: 5 deaths
patients
  gastrointestinal side effects, occurrence in patients: 5-10 % of patients
  torsades de pointes: torsades de pointes, has been reported
[3]
  major route of excretion: via the bile into the intestinal tract
  metabolism: eventually metabolized to several inactive metabolites
  serum concentration: a linear increase in serum concentration

## CCN(CC)CCNC(=O)c1ccc(NC(C)=O)cc1 [acetyl-procainamide]
Delayed rectifier (Ik)
  block of cellular potassium channel delayed rectifier (Ik): block a cellular potassium channel called the delayed rectifier (Ik)
Cardiac repolarization
  prolongation of cardiac repolarization: cause a prolongation of cardiac repolarization
  torsades de pointes (side effect): well known side effect

— US6040307A, “Methods ad compositions of (-) ketoconazole for treating fungal yeast and dermatophyte infections” (priority 1999, dated 2000)
